The values below come from patent US20120115877A1, “Facially Amphiphilic Compounds, Compositions, And Uses Thereof In Treating Cancer” (POLYMEDIX, INC., priority 2010, published 2012).

For data set [1], the system named is TMX2-28. Put plainly: XTT cell viability assay, growth inhibition. It counts as cell-based, human. As for the experimental part:
(§1) Compound A was tested against two human breast cancer cell lines, MCF-7 (ATCC HTB-22) and TMX2-28, and one non-tumorigenic breast cell line, MCF-10A (ATCC CRL-10317). MCF-7 and TMX2-28 cells were grown in DC5 cell growth media while the MCF-10A cells were grown in MEGM, both supplemented with 5% bovine growth serum. The cells were grown using standard techniques. Cell cultures at 50% confluence were harvested with trypsin, seeded onto sterile 96 well plates at a density of 10,000 cells/well and allowed to grow overnight to 50% confluence. Compound A was then added to the growth medium and allowed to further incubate for 48 hours. Viable cells were quantitated using an XTT assay (purchased from Roche).
A general note: Formazan colour is commonly taken as a measure of viable cells.

The test system of data set [2] is MCF-7 (ATCC HTB-22). Put plainly: XTT cell viability assay, growth inhibition. It counts as cell-based, human. As for the experimental part:
as §1

The test system of data set [3] is S. typhymurium ATTC 29631.
Data set [4] relates to UACC-62. Put plainly: NCI-60 screen, Melanoma. It counts as cell-based, human. To be noted: 10 μM. As for the experimental part: (§2) Several compounds were tested at single concentrations (10 μM) against 59 different human tumor cell lines, representing leukemia, melanoma and cancers of the lung, colon, brain, ovary, breast, prostate, and kidney (see, Table 3). The human tumor cell lines of the cancer screening panel were grown in RPMI 1640 medium containing 5% fetal bovine serum and 2 mM L-glutamine. For a typical screening experiment, cells were inoculated into 96 well microtiter plates in 100 μL at plating densities ranging from 5,000 to 40,000 cells/well depending on the doubling time of individual cell lines. After cell inoculation, the microtiter plates were incubated at 37° C., 5% CO2, 95% air and 100% relative humidity for 24 hours prior to addition of the compounds.
(§3) After 24 hours, two plates of each cell line were fixed in situ with TCA, to represent a measurement of the cell population for each cell line at the time of drug addition (Tz). Compounds were solubilized in dimethyl sulfoxide at 400-fold the desired final maximum test concentration and stored frozen prior to use. At the time of drug addition, an aliquot of frozen concentrate was thawed and diluted to twice the desired final maximum test concentration with complete medium containing 50 μg/ml gentamicin. Additional four, 10-fold or ½ log serial dilutions were made to provide a total of five compound concentrations plus control. Aliquots of 100 μl of these different drug dilutions were added to the appropriate microtiter wells already containing 100 μl of medium, resulting in the required final compound concentrations.
(§4) Following drug addition, the plates were incubated for an additional 48 hours at 37° C., 5% CO2, 95% air, and 100% relative humidity. For adherent cells, the assay was terminated by the addition of cold TCA. Cells were fixed in situ by the gentle addition of 50 μl of cold 50% (w/v) TCA (final concentration, 10% TCA) and incubated for 60 minutes at 4° C. The supernatant was discarded, and the plates were washed five times with tap water and air dried. Sulforhodamine B (SRB) solution (100 μl) at 0.4% (w/v) in 1% acetic acid was added to each well, and plates were incubated for 10 minutes at room temperature. After staining, unbound dye was removed by washing five times with 1% acetic acid and the plates were air dried. Bound stain was subsequently solubilized with 10 mM trizma base, and the absorbance was read on an automated plate reader at a wavelength of 515 nm. For suspension cells, the methodology was the same except that the assay was terminated by fixing settled cells at the bottom of the wells by gently adding 50 μl of 80% TCA (final concentration, 16% TCA). Using the seven absorbance measurements (time zero, (Tz), control growth, (C), and test growth in the presence of drug at the five concentration levels (Ti)), the percentage growth was calculated at each of the compound concentrations levels. Percentage growth inhibition was calculated as:
(§5) [(Ti−Tz)/(C−Tz)]×100 for concentrations for which Ti>/=Tz
(§6) [(Ti−Tz)/Tz]×100 for concentrations for which Ti<Tz.
(§7) Three dose response parameters were calculated for each compound. Growth inhibition of 50% (GI50) was calculated from [(Ti−Tz)/(C−Tz)]×100=50, which is the compound concentration resulting in a 50% reduction in the net protein increase (as measured by SRB staining) in control cells during the compound incubation. The compound concentration resulting in total growth inhibition (TGI) was calculated from Ti=Tz. The LC50 (concentration of compound resulting in a 50% reduction in the measured protein at the end of the compound treatment as compared to that at the beginning) indicating a net loss of cells following treatment was calculated from [(Ti−Tz)/Tz]×100=−50. Values were calculated for each of these three parameters if the level of activity was reached; however, if the effect was not reached or was exceeded, the value for that parameter was expressed as greater or less than the maximum or minimum concentration tested.

In data set [5] the test system is SK-MEL-28. The experiment in a line: NCI-60 screen, Melanoma. It counts as cell-based, human. Particulars: 10 μM. As for the experimental part: as §2, §3, §4, §5, §6, §7
The subject of data set [6] is SK-MEL-2. The experiment in a line: NCI-60 screen, Melanoma. It counts as cell-based, human. Particulars: 10 μM. As for the experimental part: as §2, §3, §4, §5, §6, §7
The subject of data set [7] is MCF-10A (ATCC CRL-10317). The experiment in a line: XTT cell viability assay, growth inhibition. It counts as cell-based. Particulars: Homo sapiens, MCF10A, non-tumorigenic, 48 hours incubation. As for the experimental part: as §1
Data set [8] concerns E. coli D31.
Data set [9] relates to human red blood cells. The experiment in a line: Lysis of human red blood cells (HC50). It counts as cell-based.
In data set [10] the test system is 786-0. Put plainly: NCI-60 screen, Renal Cancer. To be noted: 10 μM. It counts as cell-based, human. As for the experimental part:
as §2, §3, §4, §5, §6, §7

Data set [11] has as its system RPMI-8226. Put plainly: NCI-60 screen, Leukemia. It counts as cell-based, human. To be noted: 10 μM. A digest of the protocol: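 Compounds were tested at a single 10 μM concentration on cells grown in RPMI 1640 with 5% FBS and 2 mM L-glutamine, plated 24 h before dosing. After 48 h at 37 °C, cells were TCA-fixed and SRB-stained, and absorbance was read at 515 nm. Percent growth is relative to time-zero and untreated control plates.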

The subject of data set [12] is 59 different human tumor cell lines. Put plainly: NCI-60 DTP human tumor cell line screen, single concentration, mean over panel. It counts as cell-based. To be noted: single concentration 10 μM, mean over 59 human tumor cell lines; for inhibition at 10 µM: Homo sapiens, read-out: mean growth inhibition; for NCI Screen Mean % Growth: 48 hours, SRB. How it is done: as §2, §3, §4, §5, §6

For data set [13], the system named is HS 578T. The experiment in a line: NCI-60 screen, Breast Cancer. It counts as cell-based, human. To be noted: 10 μM. As for the experimental part:
as §2, §3, §4, §5, §6, §7

Values after ≈ are worked out from the molar mass of the structure shown.

As usually defined, the IC90 is the concentration at which the effect reaches the 90% level. A low value points to greater potency. As usually defined, the inhibition is the percentage by which the read-out fell short of the control.

Consider `NCCc1cc(Br)cc(C#Cc2cccc(C#Cc3cc(Br)cc(CCN)c3)c2)c1` [Compound A], for which the IC90 turned out to be 6.3 µg/mL (≈ 12.1 µM) in data set [1] (Homo sapiens, TMX2-28, tumorigenic, 48 hours incubation, XTT); 6.3 µg/mL (≈ 12.1 µM) in data set [2] (Homo sapiens, MCF7, MCF-7, tumorigenic, 48 hours incubation, XTT); 12.5 µg/mL (≈ 23.9 µM) in data set [7]. Further, the “Selectivity IC90/IC90 MCF10A” value in data set [1] (TMX2-28 versus MCF10A) and in [2] (MCF-7 versus MCF10A) was 2 in each case. For the same compound, the “potent cytotoxicity against bacteria (concentration)” value in data set [3] and in [8] was 0.8 to 1.6 µg/mL each time. The “Percent Growth” value in data set [4] was 26.03%; in [5] it was 79.76%; in data set [6], 3.515%; in [10], −26.78%; in data set [11], 9.497%. Also, the “50% lysis (HC50)” value in [9] was 75 µg/mL.

For the compound `N=C(N)NCCCCC(=O)Nc1cc(C(F)(F)F)cc(NC(=O)Nc2ccc(NC(=O)Nc3cc(C(F)(F)F)cc(NC(=O)CCCCNC(=N)N)c3OC3CCNC3)cc2)c1OC1CCNC1` (stereo not shown) [Compound B], the “Percent Growth” value in data set [4] was 75.91%; in [5], 68.29%; in data set [6], 60.98%; in data set [10] it was 58.61%; in data set [11] it was 49.97%. Moreover, in data set [12], the inhibition at 10 µM was over 30%. Also, the “NCI Screen Mean % Growth” value in [12] worked out at 56.58%.

Take `N=C(N)NCCCCC(=O)Nc1cc(C(F)(F)F)cc(NC(=O)c2cc(C(=O)Nc3cc(C(F)(F)F)cc(NC(=O)CCCCNC(=N)N)c3SCCN)ncn2)c1SCCN` [Compound C]: the “Percent Growth” value came out at 55.93% in [4], 61.39% in [5] and 54.29% in data set [6]. Moreover, in data set [12], the inhibition at 10 µM is over 30%. In addition, the “NCI Screen Mean % Growth” value in [12] is on record as 43.48%.

As for `NCCCc1cccc(-c2ccc3sc4ccc(-c5cccc(CCCN)c5)cc4c3c2)c1` [Compound D], the “Percent Growth” value in [4] was 88.44%; in [5], 99.21%; in data set [6] it was 81%; in [10], 79.48%; in data set [11], 62.06%. Besides, the inhibition at 10 µM in data set [12] was over 30%. Further, the “NCI Screen Mean % Growth” value in data set [12] amounted to 67.91%.

In the case of `c1cc(-c2ccc3sc4ccc(-c5ccnc(N6CCNCC6)c5)cc4c3c2)cc(N2CCNCC2)n1` [Compound E], the “Percent Growth” value is reported as −41.07% in data set [4], −51.91% in data set [5] and −73.48% in data set [6].

Turning to `NCCSc1cc(SCCN)c(C(F)(F)F)cc1NC(=O)c1cc(C(=O)Nc2cc(C(F)(F)F)c(SCCN)cc2SCCN)ncn1` [Compound F], the “Percent Growth” value was 51.23% in [4], 83.94% in data set [5], 46.77% in [6] and 50.09% in data set [10]. Further, in data set [12], the inhibition at 10 µM is over 30%. Moreover, in data set [12], the “NCI Screen Mean % Growth” value is 41.28%.

Take `NCCCc1cccc(-c2ccc3oc4ccc(-c5cccc(CCCN)c5)cc4c3c2)c1` [Compound G]: the “Percent Growth” value was 72.92% in [4]; 102.1% in data set [5]; 72.07% in data set [6]; 100.4% in data set [13]; 5.487% in [10]; 65.28% in [11]. Also, the inhibition at 10 µM in [12] was over 30%. Moreover, the “NCI Screen Mean % Growth” value in data set [12] stood at 49.56%.
